Test results reported in the NIST ThermoML archive (doi:10.1016/j.jct.2006.04.005).

Assays:
[1] = xn = mol fraction of the nth substance listed; conditions: 303.15 K, 101 kPa, Liquid; for mass density: Pycnometric method; for viscosity: Capillary tube (Ostwald / Ubbelohde) method; for excess molar volume: Direct dilatometry
[2] = 303.15 K, 101 kPa, Liquid; for viscosity: Capillary tube (Ostwald / Ubbelohde) method; for mass density: Pycnometric method

C[S+](C)[O-] [dimethyl sulfoxide] + Clc1ccc(Cl)c(Cl)c1
[1], x1 = 1
Conditions	mass density [kg/m3]	speed of sound [m/s]
–	1091.35	1470

Clc1cccc(Cl)c1 [1,3-dichlorobenzene]
[2]
Conditions	mass density [kg/m3]	speed of sound [m/s]	viscosity [mPa·s]
–	1277.12	1242	1.025

C[S+](C)[O-] [dimethyl sulfoxide] + Cc1cccc([N+](=O)[O-])c1
[1], x1 = 1
Conditions	mass density [kg/m3]	speed of sound [m/s]
–	1091.35	1470

Cc1ccccc1[N+](=O)[O-] [2-nitrotoluene] + C[S+](C)[O-]
[1]
Conditions	excess molar volume [m3/mol]	mass density [kg/m3]	speed of sound [m/s]	viscosity [mPa·s]
x2 = 0	–	1153.24	–	1.911
x2 = 0.0815	2.3e-08	–	2039	1.903
x2 = 0.1525	5.4e-08	–	1986	1.896
x2 = 0.2422	9.3e-08	–	1922	1.888
x2 = 0.2913	1.13e-07	–	1888	1.883
x2 = 0.3415	1.28e-07	–	1849	1.878
x2 = 0.4026	1.45e-07	–	1807	1.872
x2 = 0.4505	1.55e-07	–	1773	1.867
x2 = 0.5119	1.58e-07	–	1731	1.861
x2 = 0.5523	1.59e-07	–	1704	1.857
x2 = 0.602	1.54e-07	–	1674	1.852
x2 = 0.6521	1.43e-07	–	1645	1.847
x2 = 0.7122	1.25e-07	–	1612	1.841
x2 = 0.7516	1.13e-07	–	1591	1.836
x2 = 0.8115	8.5e-08	–	1564	1.829
x2 = 0.9227	3.5e-08	–	1508	1.814

Cc1ccccc1Cl [2-chlorotoluene] + C[S+](C)[O-]
[1]
Conditions	excess molar volume [m3/mol]	mass density [kg/m3]	speed of sound [m/s]	viscosity [mPa·s]
x2 = 0	–	1072.81	1284	0.887
x2 = 0.104	1.1e-08	–	1303	1.013
x2 = 0.1845	2.1e-08	–	1324	1.123
x2 = 0.2141	2.5e-08	–	1330	1.16
x2 = 0.2552	2.9e-08	–	1343	1.209
x2 = 0.3075	3.3e-08	–	1352	1.266
x2 = 0.376	3.9e-08	–	1369	1.342
x2 = 0.4079	4.2e-08	–	1377	1.375
x2 = 0.5224	4.6e-08	–	1403	1.49
x2 = 0.551	4.5e-08	–	1410	1.518
x2 = 0.6005	4.2e-08	–	1422	1.564
x2 = 0.7241	3.1e-08	–	1446	1.667
x2 = 0.761	2.7e-08	–	1450	1.69
x2 = 0.8011	2.3e-08	–	1460	1.724
x2 = 0.8711	1.6e-08	–	1464	1.773

Cc1ccc(Cl)cc1 [4-chlorotoluene] + C[S+](C)[O-]
[1]
Conditions	excess molar volume [m3/mol]	mass density [kg/m3]	speed of sound [m/s]	viscosity [mPa·s]
x2 = 0	–	1060.54	1271	0.9
x2 = 0.0768	1.3e-08	–	1292	1.039
x2 = 0.1105	2.3e-08	–	1302	1.094
x2 = 0.1546	2.9e-08	–	1312	1.16
x2 = 0.2045	3.5e-08	–	1327	1.232
x2 = 0.2543	4.1e-08	–	1340	1.287
x2 = 0.3111	4.8e-08	–	1357	1.351
x2 = 0.3704	5.2e-08	–	1372	1.41
x2 = 0.4904	5.7e-08	–	1401	1.521
x2 = 0.5174	5.7e-08	–	1410	1.544
x2 = 0.554	5.6e-08	–	1418	1.573
x2 = 0.6014	5.3e-08	–	1430	1.611
x2 = 0.7074	4.5e-08	–	1453	1.687
x2 = 0.761	3.8e-08	–	1465	1.725
x2 = 0.8214	3.2e-08	–	1467	1.76
x2 = 0.8906	2e-08	–	1468	1.78

C[S+](C)[O-] [dimethyl sulfoxide] + Cc1cccc(Cl)c1
[1], x1 = 1
Conditions	mass density [kg/m3]	speed of sound [m/s]	viscosity [mPa·s]
–	1091.35	1470	1.803

C[S+](C)[O-] [dimethyl sulfoxide]
[2]
Conditions	mass density [kg/m3]	speed of sound [m/s]	viscosity [mPa·s]
–	1091.35	1470	1.803

C[S+](C)[O-] [dimethyl sulfoxide] + Clc1cccc(Cl)c1
[1], x1 = 1
Conditions	mass density [kg/m3]	speed of sound [m/s]
–	1091.35	1470

Cc1ccccc1[N+](=O)[O-] [2-nitrotoluene]
[2]
Conditions	mass density [kg/m3]	viscosity [mPa·s]
–	1153.24	1.911

C[S+](C)[O-] [dimethyl sulfoxide] + Cc1ccccc1[N+](=O)[O-]
[1], x1 = 1
Conditions	mass density [kg/m3]	speed of sound [m/s]	viscosity [mPa·s]
–	1091.35	1470	1.803

C[S+](C)[O-] [dimethyl sulfoxide] + Clc1ccccc1Cl
[1], x1 = 1
Conditions	mass density [kg/m3]	speed of sound [m/s]	viscosity [mPa·s]
–	1091.35	1470	1.803

Clc1ccccc1Cl [1,2-dichlorobenzene] + C[S+](C)[O-]
[1]
Conditions	excess molar volume [m3/mol]	mass density [kg/m3]	speed of sound [m/s]	viscosity [mPa·s]
x2 = 0	–	1299.24	1261	1.302
x2 = 0.104	2.3e-08	–	1264	1.379
x2 = 0.1511	3.3e-08	–	1268	1.409
x2 = 0.2041	4e-08	–	1274	1.443
x2 = 0.2506	4.7e-08	–	1279	1.472
x2 = 0.301	5.3e-08	–	1284	1.502
x2 = 0.4025	6e-08	–	1303	1.56
x2 = 0.4511	6.3e-08	–	1312	1.587
x2 = 0.521	6.5e-08	–	1329	1.623
x2 = 0.6511	5.8e-08	–	1367	1.686
x2 = 0.7221	5.3e-08	–	1394	1.719
x2 = 0.7519	4.9e-08	–	1403	1.73
x2 = 0.8002	4e-08	–	1417	1.751
x2 = 0.8514	3.5e-08	–	1435	1.766
x2 = 0.9019	2.3e-08	–	1446	1.782
x2 = 0.9405	1.3e-08	–	1457	1.782

C[S+](C)[O-] [dimethyl sulfoxide] + Cc1ccccc1Cl
[1], x1 = 1
Conditions	mass density [kg/m3]	speed of sound [m/s]
–	1091.35	1470

Cc1ccc(Cl)cc1 [4-chlorotoluene]
[2]
Conditions	mass density [kg/m3]	speed of sound [m/s]	viscosity [mPa·s]
–	1060.54	1271	0.9

Cc1cccc([N+](=O)[O-])c1 [3-nitrotoluene] + C[S+](C)[O-]
[1]
Conditions	excess molar volume [m3/mol]	mass density [kg/m3]	speed of sound [m/s]	viscosity [mPa·s]
x2 = 0	–	1147.67	–	1.777
x2 = 0.1052	3.9e-08	–	2002	1.78
x2 = 0.1512	6e-08	–	1964	1.781
x2 = 0.1921	7.9e-08	–	1936	1.782
x2 = 0.2216	9.2e-08	–	1909	1.783
x2 = 0.272	1.14e-07	–	1876	1.784
x2 = 0.305	1.28e-07	–	1851	1.785
x2 = 0.3641	1.52e-07	–	1812	1.786
x2 = 0.4121	1.62e-07	–	1778	1.787
x2 = 0.4772	1.77e-07	–	–	1.789
x2 = 0.5226	1.83e-07	–	1711	1.79
x2 = 0.6035	1.75e-07	–	1661	1.792
x2 = 0.724	1.46e-07	–	1598	1.794
x2 = 0.8126	1.07e-07	–	1555	1.796
x2 = 0.8905	6.2e-08	–	1518	1.799
x2 = 0.9607	2.5e-08	–	1489	1.801

Clc1ccc(Cl)c(Cl)c1 [1,2,4-trichlorobenzene] + C[S+](C)[O-]
[1]
Conditions	excess molar volume [m3/mol]	mass density [kg/m3]	speed of sound [m/s]	viscosity [mPa·s]
x2 = 0	–	1442.14	1260	1.613
x2 = 0.0911	1.2e-08	–	1253	1.647
x2 = 0.1214	1.6e-08	–	1252	1.658
x2 = 0.1805	2.3e-08	–	1257	1.677
x2 = 0.2144	2.7e-08	–	1259	1.688
x2 = 0.251	3.2e-08	–	1264	1.699
x2 = 0.3225	3.9e-08	–	1274	1.719
x2 = 0.4115	4.6e-08	–	1285	1.742
x2 = 0.467	4.8e-08	–	1296	1.755
x2 = 0.5001	5e-08	–	1302	1.763
x2 = 0.5524	4.8e-08	–	1316	1.773
x2 = 0.6207	4.7e-08	–	1339	1.786
x2 = 0.7005	4e-08	–	1379	1.796
x2 = 0.7829	3e-08	–	1415	1.801
x2 = 0.8014	2.8e-08	–	1423	1.802
x2 = 0.9228	1.2e-08	–	1459	1.803

Clc1cccc(Cl)c1 [1,3-dichlorobenzene] + C[S+](C)[O-]
[1]
Conditions	excess molar volume [m3/mol]	mass density [kg/m3]	speed of sound [m/s]	viscosity [mPa·s]
x2 = 0	–	1277.12	1242	1.025
x2 = 0.0801	1.6e-08	–	1244	1.107
x2 = 0.1124	2.2e-08	–	1248	1.14
x2 = 0.1506	2.7e-08	–	1253	1.181
x2 = 0.2075	3.5e-08	–	1256	1.232
x2 = 0.2511	4e-08	–	1268	1.273
x2 = 0.3162	4.5e-08	–	1387	1.329
x2 = 0.4219	5.3e-08	–	1395	1.419
x2 = 0.4507	5.5e-08	–	1305	1.445
x2 = 0.5005	5.6e-08	–	1345	1.487
x2 = 0.6224	5.4e-08	–	1370	1.586
x2 = 0.6819	5e-08	–	1399	1.632
x2 = 0.7517	4.3e-08	–	1416	1.68
x2 = 0.8015	3.5e-08	–	1431	1.715
x2 = 0.852	2.7e-08	–	1455	1.742
x2 = 0.9221	1.7e-08	–	1467	1.778

C[S+](C)[O-] [dimethyl sulfoxide] + Cc1ccc(Cl)cc1
[1], x1 = 1
Conditions	mass density [kg/m3]	speed of sound [m/s]	viscosity [mPa·s]
–	1091.35	1470	1.803

Cc1cccc(Cl)c1 [3-chlorotoluene] + C[S+](C)[O-]
[1]
Conditions	excess molar volume [m3/mol]	mass density [kg/m3]	speed of sound [m/s]	viscosity [mPa·s]
x2 = 0	–	1065.21	1280	0.78
x2 = 0.0868	1.2e-08	–	1300	1.02
x2 = 0.1205	1.7e-08	–	1308	1.073
x2 = 0.1911	2.8e-08	–	1324	1.164
x2 = 0.2207	3.1e-08	–	–	1.203
x2 = 0.261	3.7e-08	–	1342	1.249
x2 = 0.3125	4.1e-08	–	1356	1.305
x2 = 0.3829	4.7e-08	–	1372	1.38
x2 = 0.4156	4.9e-08	–	1382	1.415
x2 = 0.502	5.2e-08	–	1404	1.503
x2 = 0.5419	5e-08	–	1412	1.541
x2 = 0.6205	4.7e-08	–	1429	1.602
x2 = 0.7125	3.7e-08	–	1450	1.674
x2 = 0.7517	3.3e-08	–	1457	1.704
x2 = 0.824	2.5e-08	–	1468	1.735
x2 = 0.9246	1.3e-08	–	1469	1.783
